Measurements: US8834858B2, “Treatment for dyslipidemia” (Solvotrin Therapeutics Ltd., priority 2011, dated 2014)
Entries after “also recorded” stand apart in the source; their conditions may differ. Read-outs that look alike come from different tables or passages of the source.

Columns and labels:
TG, LDL, HDL = conditions: atorvastatin 10 mg/day, Slo-Niacin to 1500 mg/day, 3-month segments; cited from earlier work
[1] = test system: LDL cholesterol, HDL cholesterol, TG; conditions: adult dyslipidemias; cited from earlier work
prostaglandin D2 (PGD2) = assay: NHP crossover study: serum PGD2; format: in vivo, cynomolgus monkeys
Procedure: (§1) For TxB2, an additional 0.4 mL whole blood aliquots were placed in siliconised glass tubes to induce a clotting response and the supernatants were analysed for TxB2 using a Luminex ELISA immunoassay. PGD2 was analysed from serum directly using a Luminex ELISA immunoassay.

[2] = Incubation with rat intestinal preparation; format: in vitro ADME
[3] = Stomach irritation on administration of compound I; format: in vivo; conditions: statement in description; test not named
Procedure: Therefore, stomach irritation is not observed with the administration of isosorbide-2-acetylsalicylate-5-nicotinic acid (I). […] In some embodiments, the present invention provides a composition comprising isosorbide-2-acetylsalicylate-5-nicotinic acid (I) wherein the composition protects the gastrointestinal mucosa from irritation and inflammation.
Ulcerogenic effects of aspirin and aspirin pro-drugs ST0701, ST0702, and ST0703 were determined in rabbits using the following procedure. Healthy female rabbits (n=2 per group) were dosed (by oral gavage) for 3 consecutive days with 30 mg/kg of aspirin or the molar equivalent of ST0702 and the other pro drugs. Four hours post-dose on the final day, the rabbits were euthanized using an overdose of pentobarbitone and their stomachs and small intestine removed, washed with physiological saline, opened along the greater curvature and examined. The area (square millimeters) of both non-haemorrhagic and haemorrhagic lesions developed in the stomach/intestines were measured with a square grid under a dissecting microscope.

[4] = pH 7.4
Procedure: Microsomes from human hepatocytes (post mortem tissue) were diluted with pH 7.4 buffer and the suspension warmed to 37° C. ST0702 was introduced and samples withdrawn at successive time intervals.
Hydrolysis kinetics of isosorbide diaspirinate,” Eur. J. Pharm.

[5] = Incubation in human gastric juice; format: in vitro ADME; conditions: over 60 minutes
Text: (§2) Hydrolysis kinetics of isosorbide diaspirinate,” Eur. J. Pharm. Sciences 16 2002 297-304.

[6] = Incubation with rabbit intestinal preparation; format: in vitro ADME
[7] = test system: LDL cholesterol, Apolipoprotein B, TGs; assay: NHP crossover study: clinical chemistry (LDL-C, ApoB, TG)
Procedure: (§3) The primary study endpoint is change in plasma LDL cholesterol and Apolipoprotein B at 48 hours. An aliquot of 300 μL of serum transferred to a cryovial and was immediately placed in a freezer set to maintain −70° C. until analyzed for clinical chemistry (LDL cholesterol, Apolipoprotein B, TGs, glucose) using a standard Roche Analyser.

[8] = Incubation with pig intestinal S9 fraction; format: in vitro ADME
Procedure: FIG. 2 depicts a progress curve for the disappearance of ST0702 following incubation with pig intestinal S9 fraction.
as §2

[9] = Incubation with mouse intestinal preparation; format: in vitro ADME
[10] = Incubation with microsomes from the human intestinal wall; format: in vitro ADME
Procedure: FIG. 7 depicts a progress curve following incubation of ST0702 in the presence of microsomes from the human intestinal wall.
as §2

[11] = Incubation in diluted human intestinal contents; format: in vitro ADME; conditions: prolonged period
Text: as §2

serum glucose = assay: NHP crossover study: serum glucose
Procedure: as §3

thromboxane B2 (TxB2) = assay: NHP crossover study: ex-vivo serum TxB2; format: in vivo, cynomolgus monkeys
Procedure: as §1

[12] = Hydrolysis of ST0702 in 50% human plasma; format: in vitro ADME; conditions: 50% human plasma diluted with pH 7.4 buffer, 37° C.
Procedure: FIG. 1 depicts a progress curve for the disappearance of isosorbide-2-aspirinate-5-nicotinate (ST0702) following incubation (in vitro) in 50% human plasma diluted with pH 7.4 buffer at 37° C.
A Waters Spherisorb® (4 μm) C18 3.9×250 mm column was used for the plasma and enzyme study samples. The enzyme and plasma study samples were analysed using a gradient method employing a mobile phase consisting of pH 3.19 phosphate buffer:acetonitrile 90:10 grading to 10:90 over the first ten minutes then back to 65:35 to 12 minutes and grading to 90:10 to 17 minutes at which it was held to 30 minutes. The eluent in both methods was monitored at 230 nm and peak identity and homogeneity confirmed by PDA analysis. Quantitation was performed by comparison of peak areas with external standards run under the same conditions at about the same concentration. The flow rate was 1 ml/min.
For the hydrolysis experiments pooled plasma or serum solutions (4 ml) were prepared by centrifugation of citrated human venous blood and dilution with pH 7.4 phosphate buffer as appropriate. Whole blood was used undiluted. […] 20 μl aliquots of the supernatant were analysed by HPLC. Hydrolysis was monitored until consumption of the parent ester. […] Cholinesterase activity of plasma, serum and whole blood was evaluated using the Ellman approach with butyryl thiocholine as substrate. […]

[13] = cited from earlier work
[14] = cited from earlier work; remark: listed apart in the source
[15] = cited from earlier work; remark: listed apart in the source
[16] = cited from earlier work; remark: listed apart in the source
PGD2 receptor-1 (DP1) = PGD2 receptor-1 (DP1) (Homo sapiens, UniProt Q13258); conditions: cited from earlier work; for reduction of flushing associated with 1.5 g ER nicotinic acid: single dose study
PGD2 receptor-1 (DP1), sequence (Q13258 whole entry): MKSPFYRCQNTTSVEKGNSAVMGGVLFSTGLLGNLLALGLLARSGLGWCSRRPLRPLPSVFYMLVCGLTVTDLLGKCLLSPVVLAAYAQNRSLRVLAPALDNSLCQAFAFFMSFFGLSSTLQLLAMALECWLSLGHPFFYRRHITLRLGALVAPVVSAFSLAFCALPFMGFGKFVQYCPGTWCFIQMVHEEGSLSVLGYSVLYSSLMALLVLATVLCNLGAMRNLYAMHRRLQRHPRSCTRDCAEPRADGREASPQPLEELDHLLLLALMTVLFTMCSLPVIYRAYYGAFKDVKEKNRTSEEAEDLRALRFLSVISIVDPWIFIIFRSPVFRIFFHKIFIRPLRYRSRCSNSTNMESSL

[17] = test system: fasting glucose, glycated albumin; conditions: 4.0 g, one month; cited from earlier work
[18] = test system: fasting glucose, glycated albumin, TG, total cholesterol; conditions: cited from earlier work; for fall in fasting glucose levels: two weeks
HbA1c = conditions: cited from earlier work
[19] = baseline to 48 hours, 28 mg/kg niacin equivalents daily oral gavage, n=6
[20] = high risk patients (secondary prevention)

SMILES: CC(C)c1c(C(=O)Nc2ccccc2)c(-c2ccccc2)c(-c2ccc(F)cc2)n1CC[C@@H](O)C[C@@H](O)CC(=O)O [Atorvastatin]
- HDL (TG, LDL, HDL): +6%
- LDL (TG, LDL, HDL): −36%
- TG (TG, LDL, HDL): −26%

SMILES: O=C1[C@H](CC[C@H](O)c2ccc(F)cc2)[C@@H](c2ccc(O)cc2)N1c1ccc(F)cc1 [Ezetimibe]
- HDL cholesterol [1]: +3%
- LDL cholesterol [1]: −18 to −24%
- TG [1]: No change

SMILES: CC(=O)Oc1ccccc1C(=O)O[C@H]1CO[C@H]2[C@@H]1OC[C@H]2OC(=O)c1cccnc1 [ST0702, isosorbide-2-aspirinate-5-nicotinate]
- reduction in PGD2 AUC levels compared to nicotinic acid (prostaglandin D2 (PGD2); over 24 hours): 8 fold
- PGD2 AUC (prostaglandin D2 (PGD2); over 24 hours post dosing, equimolar doses): 16.2 ± 6.4 ng·h/mL
- aspirin production from ST0702 [2]: do not produce aspirin
- stomach irritation [3]: not observed
- hydrolysis pattern in human liver microsomes [4]: more significant direct hydrolysis at position 5 leading to direct nicotinic acid production
- metabolism in human gastric juice [5]: not metabolized
- aspirin production from ST0702 [6]: do not produce aspirin
- TG levels at 48 hours (follow up) ([7]; 48 hours): 55 ± 24 mg/dL
- TG levels at baseline ([7]; baseline): 59 ± 29 mg/dL
- increase in TG levels (non-significant) ([7]; baseline to 48 hours): 4.4%
- reduction from baseline in LDL cholesterol [7, 19]: 53%
- reduction from baseline in apolipoprotein B [7, 19]: 42%
- aspirin production from ST0702 [8]: do not produce aspirin
- aspirin production from ST0702 [9]: do not produce aspirin
- hydrolysis pattern in human intestinal wall microsomes [10]: hydrolysis predominantly at the isosorbide-2-position liberating aspirin and isosorbide-5-nicotinate
- stability in human intestinal contents [11]: effectively unchanged
- serum glucose change from baseline (serum glucose; 1 hour post dose): significant decrease
- plasma glucose versus baseline (serum glucose; 4 hours post dose): remained below baseline levels; also recorded: significant reduction
- serum TxB2 suppression (thromboxane B2 (TxB2); at 24 and 48 hours): > 95%
- serum TxB2 levels (thromboxane B2 (TxB2); from 15 minutes on, within group and vs niacin): significantly reduced
- disappearance of ST0702 / conversion to hydrolysis products [12]: rapid conversion to a series of hydrolysis products

SMILES: CC(=O)Oc1ccccc1C(=O)O [aspirin]
- effect on flushing symptoms ([13]; 325 mg, 30-60 minutes before IR nicotinic acid): attenuated flushing symptoms
- patients with moderate or greater flushing ([13]; first week of treatment, with vs without aspirin): 15%
- flushing-specific discontinuation rate ([13]; four week study, 325 mg aspirin before ER nicotinic acid vs no aspirin): 1.8%
- reduction of the incidence of flushing ([13]; pre-treatment with aspirin): 18%
- mean rate of treatment discontinuation because of nicotinic acid flushing ([13]; with adjunctive aspirin): approximately 6.5%
- patients with at least occult bleeding ([14]; daily aspirin use even at low doses): More than 75%
- absolute annual increased risk of major bleeding episodes ([14]; low dose aspirin (75-325 mg daily), 22 randomized trials): 1.3 per 1000 patients
- Lowest effective daily dose ([15]; Acute MI): 160 mg
- Lowest effective daily dose ([15]; Acute ischaemic stroke): 160 mg
- Lowest effective daily dose ([15]; Hypertension): 75 mg
- Lowest effective daily dose ([15]; Men at high CV risk): 75 mg
- Lowest effective daily dose ([15]; Polycythemia): 100 mg
- Lowest effective daily dose ([15]; Severe carotid artery stenosis): 75 mg
- Lowest effective daily dose ([15]; Stable angina): 75 mg
- Lowest effective daily dose ([15]; TIA and ischaemic stroke): 50 mg
- Lowest effective daily dose ([15]; Unstable angina): 75 mg
- prevention of non-fatal vascular events [16, 20]: about 30%
- prevention of vascular death [16, 20]: approximately 15%
- risk reduction ([16]; patients with unstable angina): approximately 50%
- reductions in risk of MI ([16]; primary prevention): 25%-33
- avoidance of a major vascular event ([16]; prior MI, stroke, or TIA, approximately 30 months): 36 per 1,000 patients
- avoidance of a major vascular event ([16]; unstable angina, treated for 6 months): 50 per 1,000 patients

SMILES: CS(=O)(=O)c1cc(F)cc2c3c(n(Cc4ccc(Cl)cc4)c12)[C@@H](CC(=O)O)CC3 [laropiprant]
- reduction of flushing associated with 1.5 g ER nicotinic acid (PGD2 receptor-1 (DP1); 30 mg dose): 47%
- reduction of flushing associated with 1.5 g ER nicotinic acid (PGD2 receptor-1 (DP1); 100 mg dose): 67%
- reduction of flushing associated with 1.5 g ER nicotinic acid (PGD2 receptor-1 (DP1); 300 mg dose): 74%
- overall discontinuation rate (PGD2 receptor-1 (DP1); 4,700 patients, ER nicotinic acid without vs with added laropiprant): 25.3%
- rate of moderate/severe flushing (PGD2 receptor-1 (DP1); nicotinic acid without vs with added laropiprant (Kush 2009)): 24%

SMILES: O=C(Oc1ccccc1C(=O)O)c1ccccc1O [salsalate]
- reduction of fasting glucose compared with placebo [17]: 13%
- reduction of glycated albumin [17]: 17%
- reduction of glycemic response after an oral glucose challenge [17]: 20%
- fall in fasting glucose levels ([18]; 3.0 g/daily): 9%
- decrease in TG concentrations ([18]; 3.0 g): 11%
- fall in fasting glucose levels ([18]; 4.5 g daily): 19%
- reduction in glycated albumin ([18]; 4.5 g dose): 19%
- decrease in TG concentrations ([18]; 4.5 g): 40%
- fall in total cholesterol ([18]; in vivo): 12%
- mean change in HbA1c levels compared with placebo (HbA1c; 3.0 g daily): −0.36%
- mean change in HbA1c levels compared with placebo (HbA1c; 3.5 g daily): −0.34%
- mean change in HbA1c levels compared with placebo (HbA1c; 4.0 g daily): −0.49%
